Results: ChEMBL document CHEMBL1201862, “PubChem BioAssay data set” (2004)
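Growth conditions: 96-well plates. Treatment: test compound, 48 hours, 5 concentrations. Analysis: linear interpolation between bracketing concentrations; unreached endpoints set to highest concentration. GI50 is the concentration that inhibits growth by half.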 The source made the active and inactive calls. Cut-off read from the data, not from the text of the source: active = GI50 up to about 1.1 µM and inactive = higher.

Experiments:
Test in all cases: NCI anticancer screen, dose series, 48 h
KM-20L2 = system: KM-20L2
SNB-78 = system: SNB-78
LXFL 529 = system: LXFL 529
DLD-1 = system: DLD-1
DMS-114 = system: DMS-114
XF498 = system: XF498
DMS-273 = system: DMS-273
HOP-18 = system: HOP-18
RXF 631 = system: RXF 631

Compound	GI50 (KM-20L2)	GI50 (SNB-78)	GI50 (LXFL 529)	GI50 (DLD-1)	GI50 (DMS-114)	GI50 (XF498)	GI50 (DMS-273)	GI50 (HOP-18)	GI50 (RXF 631)
CC1=C(C(=O)Nc2ccc([N+](=O)[O-])cc2)C(c2ccc(N(C)C)cc2)C(C(=O)Nc2ccc([N+](=O)[O-])cc2)=C(C)N1	11.4 µM (inactive)	29.2 µM (inactive)	16.8 µM (inactive)	11.9 µM (inactive)	–	–	–	–	–
CC1=NN(C(=O)Cc2ccccc2)C(=O)/C1=C\c1ccc(O)cc1	> 100 µM (inactive)	36.8 µM (inactive)	> 100 µM (inactive)	> 100 µM (inactive)	> 100 µM (inactive)	> 100 µM (inactive)	–	–	–
CC(C)(Oc1ccc2c(=O)cc(-c3ccccc3)oc2c1)C(=O)Nc1c(Cl)cccc1Cl	> 100 µM (inactive)	> 100 µM (inactive)	81.7 µM (inactive)	–	19.7 µM (inactive)	14.3 µM (inactive)	64.4 µM (inactive)	> 100 µM (inactive)	–
NNC(=S)N/N=C(\c1nc2ccc(Cl)cc2nc1O)C(O)c1ccc(Cl)cc1Cl (stereo not drawn)	> 100 µM (inactive)	> 100 µM (inactive)	> 100 µM (inactive)	> 100 µM (inactive)	> 100 µM (inactive)	> 100 µM (inactive)	> 100 µM (inactive)	> 100 µM (inactive)	> 100 µM (inactive)
O=C(O)CN(c1ccc(Cl)cc1)S(=O)(=O)c1ccccc1	> 100 µM (inactive)	–	> 100 µM (inactive)	> 100 µM (inactive)	–	> 100 µM (inactive)	> 100 µM (inactive)	> 100 µM (inactive)	> 100 µM (inactive)
CC1=C(C(=O)Nc2cccc(C(F)(F)F)c2)C(c2ccccc2F)C(C(=O)Nc2cccc(C(F)(F)F)c2)=C(C)N1	4.51 µM (inactive)	13.9 µM (inactive)	5.57 µM (inactive)	6.21 µM (inactive)	3.33 µM (inactive)	2.09 µM (inactive)	–	–	10 µM (inactive)
COC(=O)C(=O)C(C(=O)C1=NS(=O)(=O)c2cc(S(N)(=O)=O)c(Cl)cc2N1)c1nc2ccc(C(=O)c3ccccc3)cc2nc1O (stereo not drawn)	> 100 µM (inactive)	85.1 µM (inactive)	38.9 µM (inactive)	–	–	39 µM (inactive)	> 100 µM (inactive)	> 100 µM (inactive)	86.9 µM (inactive)
COC(=O)C(C(=O)C(=O)Nc1cccc(OC)c1)c1cnc2ccccc2n1 (stereo not drawn)	> 100 µM (inactive)	> 100 µM (inactive)	> 100 µM (inactive)	> 100 µM (inactive)	> 100 µM (inactive)	> 100 µM (inactive)	> 100 µM (inactive)	> 100 µM (inactive)	> 100 µM (inactive)
Clc1ccc(CN2COc3c(cc(Cl)c4cccnc34)C2)cc1	14.3 µM (inactive)	4.79 µM (inactive)	1.36 µM (inactive)	2.52 µM (inactive)	1.84 µM (inactive)	0.973 µM (active)	1.78 µM (inactive)	3.96 µM (inactive)	10.3 µM (inactive)
Nc1nc2c(nnn2C2C=C(CO)C(O)C2O)c(=O)[nH]1 (stereo not drawn)	> 100 µM (inactive)	95.3 µM (inactive)	> 100 µM (inactive)	> 100 µM (inactive)	> 100 µM (inactive)	> 100 µM (inactive)	> 100 µM (inactive)	> 100 µM (inactive)	–
CCN(CC)c1c(C(=O)/C=C/c2ccc(OC)cc2)c(-c2ccccc2)nn(C)c1=O	15.4 µM (inactive)	25 µM (inactive)	10.7 µM (inactive)	12.1 µM (inactive)	13.4 µM (inactive)	–	2.37 µM (inactive)	22.2 µM (inactive)	20.6 µM (inactive)
CO/C=C/c1cc2c(cc1C(OC)OC)OCO2	35.2 µM (inactive)	> 100 µM (inactive)	–	36.1 µM (inactive)	32.9 µM (inactive)	33.4 µM (inactive)	30.3 µM (inactive)	–	43.7 µM (inactive)
CN1CC(=O)N(C)c2ncn(Cc3ccccc3)c2C1=O	–	> 100 µM (inactive)	> 100 µM (inactive)	> 100 µM (inactive)	> 100 µM (inactive)	17 µM (inactive)	> 100 µM (inactive)	> 100 µM (inactive)	4.68 µM (inactive)
N#CC(NNC(=O)Cc1ccccc1)c1cccc(O)c1 (stereo not drawn)	–	> 100 µM (inactive)	> 100 µM (inactive)	> 100 µM (inactive)	> 100 µM (inactive)	–	> 100 µM (inactive)	> 100 µM (inactive)	–
c1ccc(-c2[nH]c(-c3ccccc3)c(-c3cnccn3)c2-c2cnccn2)cc1	> 100 µM (inactive)	> 100 µM (inactive)	–	> 100 µM (inactive)	> 100 µM (inactive)	95.7 µM (inactive)	> 100 µM (inactive)	> 100 µM (inactive)	–
COC(=O)C1C(O)CC(c2ccccn2)N(Cc2ccccc2)C1c1ccccn1 (stereo not drawn)	> 100 µM (inactive)	> 100 µM (inactive)	> 100 µM (inactive)	> 100 µM (inactive)	> 100 µM (inactive)	–	> 100 µM (inactive)	> 100 µM (inactive)	> 100 µM (inactive)
COC(=O)C1=C(c2cc(OC)c(OC)c(OC)c2)OC(c2cc(OC)c(OC)c(OC)c2)C1COC(C)=O (stereo not drawn)	71.6 µM (inactive)	45.7 µM (inactive)	34.4 µM (inactive)	26.2 µM (inactive)	34.7 µM (inactive)	32.4 µM (inactive)	25.6 µM (inactive)	–	17.4 µM (inactive)
CCc1cccc(CC)c1NC(=O)/C(Cl)=C(/Cl)C(=O)O	43.8 µM (inactive)	37.7 µM (inactive)	13.6 µM (inactive)	22.8 µM (inactive)	23.2 µM (inactive)	22.6 µM (inactive)	50 µM (inactive)	24.3 µM (inactive)	–
